Earlier results, collected in US20130158028A1, “USE OF STIMULATORS AND ACTIVATORS OF SOLUBLE GUANYLATE CYCLASE FOR TREATING SICKLE-CELL ANEMIA AND CONSERVING BLOOD SUBSTITUTES” (BAYER INTELLECTUAL PROPERTY GMBH, priority 2010, published 2013).

Settings: repeated reports

CN1CC(=O)N2[C@H](c3ccc4c(c3)OCO4)c3[nH]c4ccccc4c3C[C@@H]2C1=O [tadalafil, (6R,12aR)-2,3,6,7,12,12a-hexahydro-2-methyl-6-(3,4-methylenedioxyphenyl)pyrazino (1′,2′:1,6) pyrido(3,4-b)indole-1,4-dione]
incidence of back pain: increased incidence of back pain
